Consider 1 compound from patent US8641948B2, “Method of making solid dispersions of highly crystalline therapeutic compounds” (Novartis AG, priority 2006, dated 2014).

SMILES strings stand for the structures.

This data set can be described thus: Stability of the crystalline therapeutic compound (heat, light, oxidation). Type of data set: physicochemical. The source says:
An example of a poorly water soluble therapeutic compound appropriate for the present invention is midostaurin which is a protein Kinase C inhibitor.

Consider `CO[C@@H]1[C@H](N(C)C(=O)c2ccccc2)C[C@H]2O[C@]1(C)n1c3ccccc3c3c4c(c5c6ccccc6n2c5c31)C(=O)NC4` [midostaurin], for which the “stability to light and oxidation” value was “light-sensitive and oxidizes”. Further, the thermal stability entry (at melting point of about 260° C.) was “decomposes upon melting”.
